Assays:
human H3 receptor [1] = biological target: T1, human H3 receptor (Homo sapiens, UniProt Q9Y5N1); assay: In vitro H3 binding assay (3H-N-α-methyl-histamine competition binding); conditions: membranes of CHO-K1 cells expressing human H3 receptor; 2 nM 3H-NαMH; read-out: hH3 binding IC50
T1 construct: expressed in transfected cells
Protocol: The ability of compounds to bind to the H3 receptor was determined by measuring the reduction in tritiated N-α-methyl-histamine (^3H—NαMH) binding in a competition binding assay. Changes in the levels of bound radio-label were monitored by scintillation counting with a Trilux Microbeta (Perkin Elmer).
Membranes were prepared from CHO-K1 cells stably expressing human H3 receptor; routinely grown as monolayers in Ham's F12 medium (Invitrogen) supplemented with 10% Foetal Clone 111 (Hyclone), 500 μg/ml G418 (Invitrogen), 5 μg/ml blasticidine S (Invivogen) and […] Gentamicin (Sigma) in 5% CO2 at 37° C. Cells were grown to 80-95% confluency, rinsed once with 1×PBS (Invitrogen) and detached by incubating with 1×PBS containing 0.02% EDTA (Sigma) for 10 minutes at room temperature. Cells were collected by centrifugation at 900×g, 4° C. for 10 minutes. Cells were rinsed once with 1×PBS and re-suspended in ice cold homogenisation buffer (50 mM Tris-HCl (pH 7.4), 2.5 mM EDTA, 5 mM MgCl2, 200 mM Sucrose) at 1×10^7 cells/ml and kept on ice. Cells were homogenised on ice and debris removed by centrifugation at 500×g, 4° C. for 5 minutes. The resulting supernatant was centrifuged at 75,600×g, 4° C. for 60 minutes. Membranes were suspended in homogenisation buffer, protein concentration was determined (BCA Protein Assay kit (Pierce)), diluted to 2.2 mg/ml, dispensed into 1 ml aliquots and stored at −80° C.
Membranes were thawed on ice, sonicated with 4 cycles of 20 pulses (50% amplitude, 0.5 pulse) (UP200S Hielscher) on ice, diluted in assay buffer (50 mM Tris-HCl (pH7.4), 5 mM MgCl2) to 62.5 μg/ml. Compound was serially diluted in DMSO before being diluted 1:10 with assay buffer. 5 μg of membrane in 80 μl of assay buffer was added per well of a 96 well polystyrene plate (Corning). […] of compound was added per well. The assay was initiated by the addition of 10 μl of 20 nM ^3H—NαMH per well and incubated for one hour at room temperature with shaking. Total binding was determined in the presence of 1% DMSO and non-specific binding was determined by the inclusion of 1 μM R-α-methyl-histamine (RαMH). Incubations were then filtered through filtermat A (Perkin Elmer) and washed three times with assay buffer. Filtermats were dried at 42° C. for two hours, scintillant added and the level of bound radioactivity determined.
IC50 values for compounds were determined from seven point log scale dose-response studies and represent the concentration of compound required to inhibit 50% of the specific binding of 2 nM ^3H—NαMH (difference between total and non-specific binding). Curves were generated using the average of duplicate wells for each data point and analyzed using nonlinear regression of sigmoidal dose response (variable slope).

human H3 receptor [2] = biological target: T1, human H3 receptor; assay: In vitro H3 functional assay (cAMP response element driven luciferase reporter); type: cell-based; conditions: CHO(dhfr+)-cre-luc cells expressing human H3 receptor; RαMH 10 nM, forskolin 1 μM; read-out: hH3 functional IC50
Protocol: The functional activity of compounds at the H3 receptor was determined by measuring changes in the level of intracellular cAMP using a cAMP response element driven luciferase reporter assay. The changes in luciferase expression were monitored by a luminescence plate reader, Analyst HT (MDS Analytical). Increases in intracellular cAMP were readily detected upon activation of protein kinase A by forskolin (Sigma) and suppression of this response observed with the application of the H3 receptor agonist RαMH (Sigma).
CHO(dhfr^+)-cre-luc cells stably expressing human H3 receptor were routinely grown as monolayers in Minimal Essential Medium α (MEMα) (Invitrogen) supplemented with 10% dialysed FBS (Hyclone), in 5% CO2 at 37° C. 48 hours prior to assay, cells were seeded in clear-base white walled 384-well plates (Corning) at a density of 5000 cells/well. On the day of assay, growth media was removed and replaced with […] of assay buffer (MEMα, 5 mg/ml fatty acid free BSA (Sigma)) per well. Cells were then incubated for 30 minutes at 37° C., 5% CO2. Compound was serially diluted in DMSO before being diluted 1:10 with assay buffer. 2.5 of compound diluted in assay buffer was added and cells incubated for 5 minutes at 37° C., 5% CO2. 2.5 μl of each reagent was then added in the following order: RαMH (10 nM), isobutylmethylxanthine (1-methyl-3-(2-methylpropyl)-7H-purine-2,6-dione; IBMX) (500 μM) (Sigma) and forskolin (1 μM). Cells were then incubated for 90 minutes at 37° C., 5% CO2, followed by 30 minutes at room temperature. At the end of incubation 25 μl of Steadylite reagent (Perkin Elmer) was added, plates were sealed and placed on a shaker for 5 minutes. The level of light output to determine the level of luciferase expression was then measured.
IC50 values for compounds were determined from ten point half log scale dose-response studies and represent the concentration of compound required to […] 50% inhibition of forskolin stimulated cells in the presence of RαMH alone. Curves were generated using the average of duplicate wells for each data point and analyzed using nonlinear regression of four parameter dose response.

T1 sequence (Q9Y5N1 whole entry): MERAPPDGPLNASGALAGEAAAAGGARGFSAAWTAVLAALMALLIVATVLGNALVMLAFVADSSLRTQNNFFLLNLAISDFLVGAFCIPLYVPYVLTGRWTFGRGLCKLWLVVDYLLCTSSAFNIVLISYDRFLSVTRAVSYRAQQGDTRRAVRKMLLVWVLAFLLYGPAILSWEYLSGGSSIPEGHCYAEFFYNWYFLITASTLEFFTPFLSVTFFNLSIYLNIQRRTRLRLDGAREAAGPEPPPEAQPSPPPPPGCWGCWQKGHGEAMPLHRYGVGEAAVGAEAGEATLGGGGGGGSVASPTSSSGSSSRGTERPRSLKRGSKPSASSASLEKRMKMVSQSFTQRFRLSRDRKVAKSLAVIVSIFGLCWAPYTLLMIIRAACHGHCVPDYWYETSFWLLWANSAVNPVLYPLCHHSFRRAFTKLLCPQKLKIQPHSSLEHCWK

| Structure (SMILES) | IC50 (human H3 receptor [1]) [nM] | IC50 (human H3 receptor [2]) [nM] |
| --- | --- | --- |
| CC(=O)N1CCC(C(O)Cc2ccc3c(c2)CCN(C2CCC2)CC3)CC1 (racemic) [Example 146, 1-(4-(2-(3-cyclobutyl-2,3,4,5-tetrahydro-1H-benzo[d]azepin-7-yl)-1-hydroxyethyl)piperidin-1-yl)ethanone] | 10 | 10 |
| O=C(NCc1ccc2c(c1)CCN(C1CCC1)CC2)c1cccnc1 [Example 120, N-((3-cyclobutyl-2,3,4,5-tetrahydro-1H-benzo[d]azepin-7-yl)methyl)nicotinamide] | 1 |  |
| CO/N=C(\CCc1ccccc1)c1ccc2c(c1)CCN(C1CCC1)CC2 [Example 131, 1-(3-cyclobutyl-2,3,4,5-tetrahydro-1H-benzo[d]azepin-7-yl)-3-phenylpropan-1-one O-methyl oxime] | 30 |  |
| O/N=C(\CCc1ccccc1)c1ccc2c(c1)CCN(C1CCC1)CC2 [Example 132, 1-(3-cyclobutyl-2,3,4,5-tetrahydro-1H-benzo[d]azepin-7-yl)-3-phenylpropan-1-one oxime] | 6 |  |
| Cn1nccc1CCC(O)c1ccc2c(c1)CCN(C1CCC1)CC2 (stereo not drawn) [Example 137, 1-(3-cyclobutyl-2,3,4,5-tetrahydro-1H-benzo[d]azepin-7-yl)-3-(1-methyl-1H-pyrazol-5-yl)propan-1-ol] | 26 |  |
| O=C(C1CCC1)N1CCC(O)(Cc2ccc3c(c2)CCN(C2CCC2)CC3)CC1 [Example 155, cyclobutyl(4-((3-cyclobutyl-2,3,4,5-tetrahydro-1H-benzo[d]azepin-7-yl)methyl)-4-hydroxypiperidin-1-yl)methanone] | 24 |  |
| Cc1nc(C)c(C(=O)NCc2ccc3c(c2)CCN(C2CCC2)CC3)s1 [Example 268, N-((3-cyclobutyl-2,3,4,5-tetrahydro-1H-benzo[d]azepin-7-yl)methyl)-2,4-dimethylthiazole-5-carboxamide] | 4 |  |
| O=C(NCc1ccc2c(c1)CCN(C1CCOC1)CC2)c1ccc(N2CCCC2)nc1 (stereo not drawn) [Example 269, 6-(pyrrolidin-1-yl)-N-((3-(tetrahydrofuran-3-yl)-2,3,4,5-tetrahydro-1H-benzo[d]azepin-7-yl)methyl)nicotinamide] | 2.5 |  |
| COc1ccc(NC(=O)Cc2ccc3c(c2)CCN(C2CCC2)CC3)cn1 [Example 274, 2-(3-cyclobutyl-2,3,4,5-tetrahydro-1H-benzo[d]azepin-7-yl)-N-(6-methoxypyridin-3-yl)acetamide] | 9 |  |
| COc1nc(C)c(C(=O)NCc2ccc3c(c2)CCN(C2CCC2)CC3)s1 [Example 275, N-((3-cyclobutyl-2,3,4,5-tetrahydro-1H-benzo[d]azepin-7-yl)methyl)-2-methoxy-4-methylthiazole-5-carboxamide] | 7 |  |
| Cc1nocc1C(=O)NCc1ccc2c(c1)CCN(C1CCC1)CC2 [Example 276, N-((3-cyclobutyl-2,3,4,5-tetrahydro-1H-benzo[d]azepin-7-yl)methyl)-3-methylisoxazole-4-carboxamide] | 19 |  |
| O=C(NCc1ccc2c(c1)CCN(C1CCC1)CC2)c1ccc(NCC2CC2)nc1 [Example 280, N-[(3-cyclobutyl-2,3,4,5-tetrahydro-1H-3-benzazepin-7-yl)methyl]-6-[(cyclopropylmethyl)amino]pyridine-3-carboxamide] | 0.3 |  |
| O=C(NCc1ccc2c(c1)CCN(C1CCC1)CC2)c1ccc(O[C@H]2CCOC2)nc1 [Example 281, N-[(3-cyclobutyl-2,3,4,5-tetrahydro-1H-3-benzazepin-7-yl)methyl]-6-[(3S)-tetrahydrofuran-3-yloxy]pyridine-3-carboxamide] | 0.8 |  |
| O=C(NCc1ccc2c(c1)CCN(C1CCC1)CC2)c1ccc(NC2CCOC2)nc1 (stereo not drawn) [Example 282, N-[(3-cyclobutyl-2,3,4,5-tetrahydro-1H-3-benzazepin-7-yl)methyl]-6-(tetrahydrofuran-3-ylamino)pyridine-3-carboxamide] | 1 |  |
| O=C(NCc1ccc2c(c1)CCN(C1CC(O)C1)CC2)c1ccc(N2CCCC2)nc1 (stereo not drawn) [Example 287, N-((3-(3-hydroxycyclobutyl)-2,3,4,5-tetrahydro-1H-benzo[d]azepin-7-yl)methyl)-6-(pyrrolidin-1-yl)nicotinamide] | 1 |  |
| C[C@H](O)CNc1ccc(C(=O)NCc2ccc3c(c2)CCN(C2CCC2)CC3)cn1 [Example 290, (S)—N-((3-cyclobutyl-2,3,4,5-tetrahydro-1H-benzo[d]azepin-7-yl)methyl)-6-(2-hydroxypropylamino)nicotinamide] | 3 |  |
| O=C(Cc1ccc2c(c1)CCN(C1CCC1)CC2)Nc1ccc(N2CCCC2)nc1 [Example 294, 2-(3-cyclobutyl-2,3,4,5-tetrahydro-1H-3-benzazepin-7-yl)-N-[6-(pyrrolidin-1-yl)pyridin-3-yl]acetamide] | 8 |  |
| O=C(NCc1ccc2c(c1)CCN(C1CCOC1)CC2)c1ccc(N2CC[C@H](F)C2)nc1 (stereo partly drawn) [Example 300, 6-((S)-3-fluoropyrrolidin-1-yl)-N-((3-(tetrahydrofuran-3-yl)-2,3,4,5-tetrahydro-1H-benzo[d]azepin-7-yl)methyl)nicotinamide] | 5 |  |
| CNc1ncc(C(=O)NCc2ccc3c(c2)CCN(C2CCC2)CC3)cn1 [Example 302, N-((3-cyclobutyl-2,3,4,5-tetrahydro-1H-benzo[d]azepin-7-yl)methyl)-2-(methylamino)pyrimidine-5-carboxamide] | 3 |  |
| CN(Cc1ccc2c(c1)CCN(C1CCC1)CC2)C(=O)c1cnc(N2CCCC2)nc1 [Example 313, N-((3-cyclobutyl-2,3,4,5-tetrahydro-1H-benzo[d]azepin-7-yl)methyl)-N-methyl-2-(pyrrolidin-1-yl)pyrimidine-5-carboxamide] | 1 |  |
| COCC(C)(C)Oc1ccc(C(=O)NCc2ccc3c(c2)CCN(C2CCC2)CC3)cn1 [Example 315, N-[(3-cyclobutyl-2,3,4,5-tetrahydro-1H-3-benzazepin-7-yl)methyl]-6-[(1-methoxy-2-methylpropan-2-yl)oxy]pyridine-3-carboxamide] | 2 |  |
| C[C@@H](O)CN(C)c1ccc(C(=O)NCc2ccc3c(c2)CCN(C2CCC2)CC3)cn1 [Example 316, (R)—N-((3-cyclobutyl-2,3,4,5-tetrahydro-1H-benzo[d]azepin-7-yl)methyl)-6-((2-hydroxypropyl)(methyl)amino)nicotinamide] | 0.9 |  |
| O=C(NCc1ccc2c(c1)CCN(C1CCC1)CC2)[C@H]1C[C@@H](OC2CCOCC2)C1 [Example 319, cis-N-((3-cyclobutyl-2,3,4,5-tetrahydro-1H-benzo[d]azepin-7-yl)methyl)-3-(tetrahydro-2H-pyran-4-yloxy)cyclobutanecarboxamide] | 62 |  |
